In PMC11730522 (BMC Pharmacology & Toxicology, 2025):

Experiment: Pharmacokinetic study, plasma EZ levels by HPLC
Format: in vivo, rats

## O=C1[C@H](CC[C@H](O)c2ccc(F)cc2)[C@@H](c2ccc(O)cc2)N1c1ccc(F)cc1 [EZ, Ezetimibe]
After 4 h
  drop of plasma level of EZ from the highest level: 50%
rat, plasma, po, 10 mg/kg
  Tmax: 2 h
rats, oral
  peak plasma concentration of EZ: 24.36 ± 1.36 µg/mL
